Test results from paper PMC9818267, “Brain Natriuretic Peptide Protects Cardiomyocytes from Apoptosis and Stimulates Their Cell Cycle Re-Entry in Mouse Infarcted Hearts” (Cells, 2022).
Read-outs that look alike come from different tables or passages of the source. No end group written: not given here.

Key:
[1] = rats with myocardial damage; cited from earlier work
[2] = system: cardiomyocytes (CMs); experiment: Immunostaining of cell cycle markers (BrdU, Ki67, pH3, Aurkb) in CMs of BNP-treated hearts; format: in vivo, mouse
Method: For all experiments with adult mice, BrdU (1 mg/mL) was added into the drinking water during the entire period of the experiments. BrdU (40 µL/mice, 10 mg/mL) was ip injected in newborn mice on day 5 and 9 after birth.
Cells or OCT heart sections (5 µm-thick cryosections) were washed in PBS 1X and fixed in paraformaldehyde (2%) or formol (4%) for 10 min at RT. After 10 min of permeabilization (0.3% Triton x-100 in PBS) and one hour of blocking with normal serum, sections were probed with primary antibodies overnight at 4 °C (Supplementary File S1). The second day, the secondary antibody was added on cells or heart sections. Slides were mounted with Dabco (Sigma) and pictures were captured with Nikon Eclipse TS100 or 90i microscope. Images were processed with Adobe Photoshop CC2015.
For the detection of BrdU incorporation, heart slides were fixed 10 min in 2% PFA, DNA was denatured 1 h at RT in HCl 2N before neutralization in Na Borate 0.1 M pH = 8.5 during 2 × 5 min. Then, sections were probed with primary antibodies overnight at 4 °C (Supplementary File S1).

[3] = system: p38; experiment: Western blot pp38/p38 in adult CMs stimulated in vitro; format: cell-based, mouse; settings: adult CMs stimulated with BNP for 2–3 h in vitro, vs untreated
Method: (§1) CM isolations were performed thanks to the Langendorff-Free method. […] Thereafter, the heart was removed from the chest and the left ventricle was perfused with enzymatic solution containing collagenase II (120 U/mL), collagenase IV (120 U/mL) (Worthington, Biochemical Corporation, USA) and protease XIV (0.05 mg/mL or 0.175 U/mL) (Sigma-Aldrich, Merck, Darmstadt, Germany). In each experiment, a full digestion of the heart was obtained. After digestion, cardiac cells were dissociated by gentle pipetting, filtered and collected after 25 min sedimentation. For infarcted hearts, the tissue was separated into the three zones (ZI, BZ and RZ). The three different areas were weighted before gentle pipetting.
(§2) Total proteins were extracted from CMs isolated from adult infarcted and unmanipulated neonatal and adult hearts. Proteins were transferred to nitrocellulose membranes (Biorad) before incubation with primary antibodies overnight at 4 °C. Secondary antibodies were added 1 h at RT in the dark (Supplementary File S1). The signal was detected and quantified with the Odyssey infrared imaging system (LI-COR. Biosciences, Bad Homburg, Germany). All results were normalized to the tubulin protein level or to the total protein level thanks to stainings with the Revert 700 Total protein Stain (LI-COR).

[4] = system: adult CMs; experiment: Adult CM culture 7 days with BNP; format: cell-based, mouse; settings: 10 nM BNP, 7 days of culture
Method: as §1
qRT-PCR were performed using the SYBR Premix Ex Taq polymerase (Takara Bio Inc., Shiga, Japan) with the ViiA^TM7 Instrument (Applied Biosystems, Waltham, MA, USA). Total RNA was isolated from heart tissue, CM cell cultures and isolated CMs using TRI-Reagent (Zymo Research, Orange County, CA, USA). cDNA was synthesized from RNA using PrimeScript RT reagent kit (Takara Bio Inc.). Polymerase chain reactions (PCR) were performed using the SYBR Premix Ex Taq polymerase (Takara Bio Inc.) with the ViiA^TM7 Instrument (Applied Biosystems). Results were obtained after 40 cycles of a thermal step protocol consisting of an initial denaturation of 95 °C (1 s), followed by 60 °C (20 s) of elongation (α-skeletal actin has an elongation time of 30 s at 60 °C). The sequences of primers were reported in Supplementary File S2. All results were normalized with the 18S housekeeping gene (Δ CT values). Means of ΔΔ CT (Δ CTBNP–Δ CTsaline) values (versus untreated cells or NaCl treated mice) were calculated and results were represented as 2^−ΔΔCT. Statistics were performed on ΔΔ CT individual values. SEM fold increase was calculated using 2^−ΔΔ CT high values − 2^−means of ΔΔCT [13].

[5] = system: DAPI+ Troponin I+ cells; experiment: Flow cytometry of apoptotic CMs (DAPI+ Troponin I+ cells) after isolation; format: in vivo, mouse; settings: CMs isolated from adult hearts injected during 2 weeks with BNP; saline 3.5 ± 0.5%
[6] = system: Troponin T; experiment: Troponin T plasma concentration (ECLIA) after MI; format: in vivo, mouse; settings: BNP vs saline
Method: Troponin T plasma levels were quantified using an electrochemiluminescence immunoassay analyzer “ECLIA” (cobas e 801 immunoanalysis system, Roche Diagnostics, Rotkreuz, Switzerland) in the hematology laboratory of the Centre Hospitalier Universitaire Vaudois (CHUV). Blood was collected 24 h and 3 days after infarction induction in heparin microvette (Sarstedt, Nümbrecht, Germany).

[7] = system: Nkx2.5+ myocytes; settings: cited from earlier work
[8] = system: phospholamban (PLB); experiment: Western blot pPLB/PLB in adult CMs stimulated in vitro; format: cell-based, mouse; settings: adult CMs stimulated with BNP for 2–3 h in vitro, vs untreated
Method: as §1, §2

[9] = infarct and border area 10 days after MI, BNP vs saline
[10] = neonatal BNP-treated hearts vs saline
[11] = unmanipulated adult hearts, BNP vs saline

For “Brain Natriuretic Peptide (SQGSTLRVQQRPQNSKVTHISSCFGHKIDRIGSVSRLGCNALKLL; not fully specified; ends and bridges not checked; UniProt P40753 77-121, looked up) [BNP, synthetic mouse BNP (1–45) peptide (Bachem, catalog number H-7558)]”, the half-life [1] is listed as “about 1.2 min”, the “increase of percentage of BrdU+ GFP+ α actinin+ cells among GFP+ α actinin+ cells” value ([2]; ZI+BZ of infarcted Myh6 MerCreMer mice injected with tamoxifen, BNP vs saline) is listed as 20% and the “increase of percentage of CMs expressing Aurkb” value [2, 9] is listed as 2.8 ×. The “increase of percentage of CMs expressing Ki67” value [2, 9] was 50%, the “increase of percentage of CMs expressing pH3” value [2, 9] was 40% and the “increase of percentage of CMs incorporating BrdU” value [2, 9] was 70%. The “number of Aurkb+ CMs undergoing cytokinesis or binucleation” value ([2]; infarcted hearts, among Aurkb+ CMs, BNP vs saline) was “slightly increased”, the “increase of number of Aurkb+ CMs undergoing cytokinesis or binucleation” value [2, 10] was 1.4 fold and the “increase of number of CMs expressing Aurkb” value [2, 10] was 47.5%. The “increase of number of CMs expressing Ki67” value [2, 10] was 15%, the “increase of number of CMs expressing pH3” value [2, 10] was 41% and the “increase of number of CMs incorporating BrdU” value [2, 10] was 23%. For the same substance, the “increase of percentage of CMs expressing pH3” value [2, 11] was 94%, the “increase of percentage of CMs incorporating BrdU” value [2, 11] was 67% and the pp38/p38 ratio [3] was “did not change”. The “Aurkb+ Troponin I+ CMs in culture” value [4] was “detected only in BNP-treated cell cultures”, the “anf mRNA increase” value ([4]; vs untreated) was 70% and the “cyclin E1 mRNA increase” value ([4]; vs untreated) was 56%. For the same substance, the “dab2 mRNA increase” value ([4]; vs untreated) was 52%, the “runx1 mRNA increase” value ([4]; vs untreated) was 62% and the “percentage of DAPI+ CMs” value [5] was 4 ± 1%. For the same substance, the “Troponin T plasma concentration decrease” value ([6]; 1 day after MI) was 2.6 ×, the “Troponin T plasma concentration decrease” value ([6]; 3 days after MI) was 2.1 × and the “increase in Nkx2.5+ myocytes” value ([7]; adult BNP-treated hearts) was 68%. For the same substance, the “increase in Nkx2.5+ myocytes” value ([7]; neonatal BNP-treated hearts) was 22.5% and the pPLB/PLB ratio increase [8] was 2.1 ×.
